Laboratory results published in patent publication US11597721B2, “Heterocyclic compounds comprising pyridine useful as modulators of IL-12, IL-23 and/or IFNα responses” (BRISTOL-MYERS SQUIBB COMPANY, priority 2018, dated 2023).
pIC50: −log10 of the molar value.

System: IFNα-Induced STAT Phosphorylation
Assay: IFNα-Induced STAT Phosphorylation in Human Whole Blood
Type: cell-based
Settings: Homo sapiens, 1 h compound incubation, 1000 U/mL recombinant human IFNα A/D for 15 min, pSTAT5 in CD3 positive population, read-out: LE Human WB IFNα-Induced Stat Phosph. (IC50)
From the text: IFNα-Induced STAT Phosphorylation in Human Whole Blood
The amount of pSTAT5 expression was quantitated by median fluorescence intensity after gating on the CD3 positive population.

Row | pIC50 | Compound
1 | 6.82 | [2H]C([2H])([2H])NC(=O)c1cnc(NC(=O)C2CC2)cc1Nc1nccc(-c2ccc(NC(=O)C3CC3)cn2)c1OC [Example 85, 6-(Cyclopropanecarboxamido)-4-((5-(cyclopropanecarboxamido)-3′-methoxy-[2,4′-bipyridin]-2′-yl)amino)-N-(methyl-d3)nicotinamide]
2 | 6.32 | [2H]C([2H])([2H])NC(=O)c1cnc(NC(=O)C2CC2)cc1Nc1nccc(-c2ccc(Cl)cn2)c1OC [Example 86, 4-((5-Chloro-3′-methoxy-[2,4′-bipyridin]-2′-yl)amino)-6-(cyclopropanecarboxamido)-N-(methyl-d3)nicotinamide]
3 | 7.52 | [2H]C([2H])([2H])NC(=O)c1nnc(NC(=O)C2CC2)cc1Nc1nccc(-c2cnc(C(=O)N(C)C)cn2)c1OC [Example 87, 6-(Cyclopropanecarboxamido)-4-((4-(5-(dimethylcarbamoyl)pyrazin-2-yl)-3-methoxypyridin-2-yl)amino)-N-(methyl-d3)pyridazine-3-carboxamide]
4 | 6.89 | [2H]C([2H])([2H])NC(=O)c1nnc(NC(=O)C2CC2)cc1Nc1nccc(-c2cnc(C(=O)N(C)CC)cn2)c1OC [Example 88, 6-(Cyclopropanecarboxamido)-4-((4-(5-(ethyl(methyl)carbamoyl)pyrazin-2-yl)-3-methoxypyridin-2-yl)amino)-N-(methyl-d3)pyridazine-3-carboxamide]
5 | 6.68 | [2H]C([2H])([2H])NC(=O)c1nnc(NC(=O)CC2CC2)cc1Nc1nccc(-c2cnc(C(=O)N(C)C)cn2)c1OC [Example 89, 6-(2-Cyclopropylacetamido)-4-((4-(5-(dimethylcarbamoyl)pyrazin-2-yl)-3-methoxypyridin-2-yl)amino)-N-(methyl-d3)pyridazine-3-carboxamide]
6 | 7.22 | [2H]C([2H])([2H])NC(=O)c1nnc(Nc2ccn(C)n2)cc1Nc1nccc(-c2cnc(C(=O)N(C)C)cn2)c1OC [Example 90, 4-((4-(5-(Dimethylcarbamoyl)pyrazin-2-yl)-3-methoxypyridin-2-yl)amino)-N-(methyl-d3)-6-((1-methyl-1H-pyrazol-3-yl)amino)pyridazine-3-carboxamide]
7 | 7.05 | [2H]C([2H])([2H])NC(=O)c1nnc(Nc2cc(C)n(C)n2)cc1Nc1nccc(-c2cnc(C(=O)N(C)C)cn2)c1OC [Example 91, 6-((1,5-Dimethyl-1H-pyrazol-3-yl)amino)-4-((4-(5-(dimethylcarbamoyl)pyrazin-2-yl)-3-methoxypyridin-2-yl)amino)-N-(methyl-d3)pyridazine-3-carboxamide]

Further lines, the molecule ahead of its results:

Row | Compound | pIC50
8 | [2H]C([2H])([2H])NC(=O)c1nnc(NC(=O)OC)cc1Nc1nccc(-c2noc(CN3CCCCS3(=O)=O)n2)c1OC [Example 64, methyl N-{5-[(4-{5-[(1,1-dioxo-1λ^6,2-thiazinan-2-yl)methyl]-1,2,4-oxadiazol-3-yl}-3-methoxypyridin-2-yl)amino]-6-[(^2H3)methylcarbamoyl]pyridazin-3-yl}carbamate] | 7.05
9 | [2H]C([2H])([2H])NC(=O)c1nnc(NC(=O)CC)cc1Nc1nccc(-c2noc(CN3CCOCC3)n2)c1OC [Example 65, 4-[(3-methoxy-4-{5-[(morpholin-4-yl)methyl]-1,2,4-oxadiazol-3-yl}pyridin-2-yl)amino]-N—(^2H3)methyl-6-propanamidopyridazine-3-carboxamide] | 6.92
10 | [2H]C([2H])([2H])NC(=O)c1nnc(NC(=O)CC)cc1Nc1nccc(-c2noc(COC)n2)c1OC [Example 66, 4-({3-methoxy-4-[5-(methoxymethyl)-1,2,4-oxadiazol-3-yl]pyridin-2-yl}amino)-N—(^2H3)methyl-6-propanamidopyridazine-3-carboxamide] | 6.68
11 | [2H]C([2H])([2H])NC(=O)c1nnc(NC(=O)CC2CC2)cc1Nc1nccc(-c2noc(CN(C)S(C)(=O)=O)n2)c1OC [Example 67, 6-(2-cyclopropylacetamido)-4-[(3-methoxy-4-{5-[(N-methylmethanesulfonamido)methyl]-1,2,4-oxadiazol-3-yl}pyridin-2-yl)amino]-N—(^2H3)methylpyridazine-3-carboxamide] | 7.15
12 | [2H]C([2H])([2H])NC(=O)c1nnc(NC(=O)CC(C)C)cc1Nc1nccc(-c2noc(COC)n2)c1OC [Example 68, 4-({3-methoxy-4-[5-(methoxymethyl)-1,2,4-oxadiazol-3-yl]pyridin-2-yl}amino)-N—(^2H3)methyl-6-(3-methylbutanamido)pyridazine-3-carboxamide] | 5.85
13 | [2H]C([2H])([2H])NC(=O)c1nnc(NC(=O)CC(C)C)cc1Nc1nccc(-c2noc(CN3CCOCC3)n2)c1OC [Example 69, 4-[(3-methoxy-4-{5-[(morpholin-4-yl)methyl]-1,2,4-oxadiazol-3-yl}pyridin-2-yl)amino]-N—(^2H3)methyl-6-(3-methylbutanamido)pyridazine-3-carboxamide] | 6.15
14 | [2H]C([2H])([2H])NC(=O)c1nnc(NC(=O)CC(C)C)cc1Nc1nccc(-c2noc(CN(C)S(C)(=O)=O)n2)c1OC [Example 70, 4-[(3-methoxy-4-{5-[(N-methylmethanesulfonamido)methyl]-1,2,4-oxadiazol-3-yl}pyridin-2-yl)amino]-N—(^2H3)methyl-6-(3-methylbutanamido)pyridazine-3-carboxamide] | 6.62
15 | [2H]C([2H])([2H])NC(=O)c1nnc(NC(=O)CC(C)C)cc1Nc1nccc(-c2noc(CN3CCOC3=O)n2)c1OC [Example 71, 4-[(3-methoxy-4-{5-[(2-oxo-1,3-oxazolidin-3-yl)methyl]-1,2,4-oxadiazol-3-yl}pyridin-2-yl)amino]-N—(^2H3)methyl-6-(3-methylbutanamido)pyridazine-3-carboxamide] | 6.38
16 | [2H]C([2H])([2H])NC(=O)c1nnc(NC(=O)CC2COC2)cc1Nc1nccc(-c2noc(COC)n2)c1OC [Example 76, 4-({3-methoxy-4-[5-(methoxymethyl)-1,2,4-oxadiazol-3-yl]pyridin-2-yl}amino)-N—(^2H3)methyl-6-[2-(oxetan-3-yl)acetamido]pyridazine-3-carboxamide] | 6.74
17 | [2H]C([2H])([2H])NC(=O)c1nnc(Nc2cc(C(C)(C)O)ccn2)cc1Nc1nccc(-c2noc(C)n2)c1OC [Example 80, 6-{[4-(2-hydroxypropan-2-yl)pyridin-2-yl]amino}-4-{[3-methoxy-4-(5-methyl-1,2,4-oxadiazol-3-yl)pyridin-2-yl]amino}-N—(^2H3)methylpyridazine-3-carboxamide] | 6.22
18 | [2H]C([2H])([2H])NC(=O)c1nnc(NC(=O)CC)cc1Nc1nccc(-c2noc(C)n2)c1OC [Example 81, 4-{[3-methoxy-4-(5-methyl-1,2,4-oxadiazol-3-yl)pyridin-2-yl]amino}-N—(^2H3)methyl-6-propanamidopyridazine-3-carboxamide] | 6.66
19 | [2H]C([2H])([2H])NC(=O)c1nnc(Nc2ccc(C(C)(C)O)cn2)cc1Nc1nccc(-c2noc(C)n2)c1OC [Example 82, 6-{[5-(2-hydroxypropan-2-yl)pyridin-2-yl]amino}-4-{[3-methoxy-4-(5-methyl-1,2,4-oxadiazol-3-yl)pyridin-2-yl]amino}-N—(^2H3)methylpyridazine-3-carboxamide] | 7.52
20 | [2H]C([2H])([2H])NC(=O)c1cnc(NC(=O)C2CC2)cc1Nc1nccc(-c2ccccn2)c1OC [Example 84, 6-(Cyclopropanecarboxamido)-4-((3′-methoxy-[2,4′-bipyridin]-2′-yl)amino)-N-(methyl-d3)nicotinamide] | 7.10
